From ChEMBL document CHEMBL1130648, “The synthesis of a new type of anthracene DNA intercalator” (Bioorg Med Chem Lett, 1998)

Tested on: Nucleic Acid
Experiment: Compound was tested for binding affinity against CT DNA.
Format: nucleic-acid assay
Conditions: Bos taurus

Binding affinity [M⁻¹] | SMILES
40000 | COc1cc2c(CCCN)c3cc(OC)c(OC)cc3c(CCCN)c2cc1OC
10000 | NCc1c2ccccc2cc2ccccc12
